Where a name gives a salt, the structure may show the parent alone.
Experiment: Sensory testing: taste testers rate sweetness of aqueous sweetener compositions without and with A1
Format: in vivo, human
Details: scale from 1 to 10
Description: Compositions of various sweetening agents were prepared without any additive and with the sodium salt of N-(1-((4-amino-2,2-dioxo-1H-benzo[c][1,2,6]thiadiazin-5-yl)oxy)-2-methyl-propan-2-yl)isonicotinamide (A1) added at various concentrations. Taste testers were asked to rate the sweetness of the resulting aqueous compositions for sweetness on a scale from 1 to 10.

Molecule `CC(C)(COc1cccc2c1C(N)=NS(=O)(=O)N2)NC(=O)c1ccncc1` [A1, sodium salt of N-(1-((4-amino-2,2-dioxo-1H-benzo[c][1,2,6]thiadiazin-5-yl)oxy)-2-methyl-propan-2-yl)isonicotinamide] has a sweetness rating (aqueous Allulose (3.5%) with 4 ppm A1) of 3.7, a sweetness rating (aqueous Allulose (3.5%) with 8 ppm A1) of 4.7 and a sweetness rating (aqueous Allulose (3.5%) with 12 ppm A1) of 4.1. It also gave a sweetness rating (aqueous Allulose (3.5%) with 16 ppm A1) of 5.5, a sweetness rating (aqueous D-(+)-Glucose (7%) with 4 ppm A1) of 4.5 and a sweetness rating (aqueous D-(+)-Glucose (7%) with 8 ppm A1) of 4.2. For the same molecule, the sweetness rating (aqueous D-(+)-Glucose (7%) with 12 ppm A1) was 5.2, the sweetness rating (aqueous D-(+)-Glucose (7%) with 16 ppm A1) was 5.7 and the sweetness rating (aqueous Erythritol (5%) with 4 ppm A1) was 4.4. The sweetness rating (aqueous Erythritol (5%) with 8 ppm A1) was 4.4, the sweetness rating (aqueous Erythritol (5%) with 12 ppm A1) was 5.7 and the sweetness rating (aqueous Erythritol (5%) with 16 ppm A1) was 6.0. It also gave a sweetness rating (aqueous Fructose (7%) with 4 ppm A1) of 7.1, a sweetness rating (aqueous Fructose (7%) with 8 ppm A1) of 7.4 and a sweetness rating (aqueous Fructose (7%) with 12 ppm A1) of 8.0. It also gave a sweetness rating (aqueous Fructose (7%) with 16 ppm A1) of 8.3, a sweetness rating (aqueous HFCS (7%) with 4 ppm A1) of 5.9 and a sweetness rating (aqueous HFCS (7%) with 8 ppm A1) of 7.2. For the same molecule, the sweetness rating (aqueous HFCS (7%) with 12 ppm A1) was 7.4, the sweetness rating (aqueous Reb M (200 ppm) with 4 ppm A1) was 5.3 and the sweetness rating (aqueous Reb M (200 ppm) with 8 ppm A1) was 6.3. It also gave a sweetness rating (aqueous Reb M (200 ppm) with 12 ppm A1) of 6.1, a sweetness rating (aqueous Reb M (200 ppm) with 16 ppm A1) of 7.3 and a sweetness rating (aqueous Sucralose (80 ppm) with 4 ppm A1) of 6.1. The sweetness rating (aqueous Sucralose (80 ppm) with 8 ppm A1) was 6.6, the sweetness rating (aqueous Sucralose (80 ppm) with 12 ppm A1) was 7.1 and the sweetness rating (aqueous Sucralose (80 ppm) with 16 ppm A1) was 7.0. It also gave a sweetness rating (aqueous Sucrose (5%) with 4 ppm A1) of 6.4, a sweetness rating (aqueous Sucrose (5%) with 8 ppm A1) of 7.3 and a sweetness rating (aqueous Sucrose (5%) with 12 ppm A1) of 8.0.
For `O=C(CO)C(O)C(O)C(O)CO` (stereo not shown) [Allulose, reference compound], the sweetness rating (aqueous Allulose (3.5%), No A1) was 3.0.
Molecule `O=C[C@H](O)[C@@H](O)[C@H](O)[C@H](O)CO` [D-(+)-Glucose, reference compound] has a sweetness rating (aqueous D-(+)-Glucose (7%), No A1) of 3.8.
In the case of `OC[C@@H](O)[C@@H](O)CO` [Erythritol, reference compound], the sweetness rating (aqueous Erythritol (5%), No A1) is reported as 4.0.
With `O=C(CO)[C@@H](O)[C@H](O)[C@H](O)CO` [Fructose, reference compound] the sweetness rating (aqueous Fructose (7%), No A1) was 7.1.
Molecule `C=C1C[C@@]23CC[C@H]4[C@@](C)(CCC[C@@]4(C)C(=O)O[C@@H]4O[C@H](CO)[C@@H](O)[C@H](O[C@@H]5O[C@H](CO)[C@@H](O)[C@H](O)[C@H]5O)[C@H]4O[C@@H]4O[C@H](CO)[C@@H](O)[C@H](O)[C@H]4O)[C@@H]2CC[C@]1(O[C@@H]1O[C@H](CO)[C@@H](O)[C@H](O[C@@H]2O[C@H](CO)[C@@H](O)[C@H](O)[C@H]2O)[C@H]1O[C@@H]1O[C@H](CO)[C@@H](O)[C@H](O)[C@H]1O)C3` [Reb M, Rebaudioside M, reference compound] has a sweetness rating (aqueous Reb M (200 ppm), No A1) of 4.7.
Molecule `OC[C@H]1O[C@H](O[C@]2(CCl)O[C@H](CCl)[C@@H](O)[C@@H]2O)[C@H](O)[C@@H](O)[C@H]1Cl` [Sucralose, reference compound] has a sweetness rating (aqueous Sucralose (80 ppm), No A1) of 3.3.
Molecule `OC[C@H]1O[C@@](CO)(O[C@H]2O[C@H](CO)[C@@H](O)[C@H](O)[C@H]2O)[C@@H](O)[C@@H]1O` [Sucrose, reference compound] has a sweetness rating (aqueous Sucrose (5%), No A1) of 3.6.
